From patent publication US20250205342A1, “IRAK DEGRADERS AND USES THEREOF” (Kymera Therapeutics, Inc., priority 2022, published 2025)

Columns and labels:
[1] = biological target: T1, IRAK4 (Homo sapiens, UniProt Q9NWZ3); assay: IRAK4 degradation in OCI-LY10 (MSD, Meso Scale Discovery); assay type: cell-based; set-up: endogenous in cells; host or cells: OCI-LY10; settings: OCI-LY10 cells, 24 h
T1 sequence (Q9NWZ3 1-460): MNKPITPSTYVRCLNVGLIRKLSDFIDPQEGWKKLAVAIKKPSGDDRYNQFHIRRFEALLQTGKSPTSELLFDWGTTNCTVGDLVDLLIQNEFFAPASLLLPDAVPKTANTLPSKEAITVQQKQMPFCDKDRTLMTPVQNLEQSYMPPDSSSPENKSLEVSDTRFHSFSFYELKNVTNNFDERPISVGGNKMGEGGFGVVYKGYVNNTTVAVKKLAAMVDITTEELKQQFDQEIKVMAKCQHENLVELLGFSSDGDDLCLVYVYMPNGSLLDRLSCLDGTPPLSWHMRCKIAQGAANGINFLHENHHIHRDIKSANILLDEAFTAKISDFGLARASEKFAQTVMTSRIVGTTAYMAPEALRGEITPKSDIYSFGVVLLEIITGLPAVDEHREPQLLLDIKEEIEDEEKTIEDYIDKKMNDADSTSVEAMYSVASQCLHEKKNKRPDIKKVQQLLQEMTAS
Procedure, shortened: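 OCI-LY10 cells (300,000/well) were treated with an 8-point 1:3 series (top 1 to 10 μM) for 4 to 24 h at 37 °C. IRAK4 in RIPA lysates was quantified by MSD sandwich immunoassay with two anti-IRAK4 antibodies. DC50 was fitted with a three-parameter logistic equation.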

[2] = biological target: T1, IRAK4; assay: hPBMC IRAK4 degradation flow assay (monocytes); assay type: cell-based; set-up: endogenous in cells; host or cells: human PBMCs (monocytes, CD14 positive gate); settings: CD14 positive monocytes, 20 h, read-out: hPBMC monocyte DC50 at 20 h
Procedure, shortened: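 Thawed human PBMCs treated 20 h (or 4 h) at 37° C. with 10-point 5-fold compound dilutions, 0.1% DMSO, then fixed, methanol-permeabilized and stained for IRAK4 and lineage markers by flow, with monocytes gated CD14+. IRAK4 MFI normalized to DMSO and 10 µM control; DC50 and max degradation from 4-parameter logistic fit.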

DC50 [1] [µM] | DC50 [2] [µM] | SMILES
1 to 10 | > 10 | CCOC(=O)Cn1cc(NC(=O)c2ccc(-c3ccc(F)c(CCCCCCCCCNC[C@H]4CC[C@H](n5cc(NC(=O)c6cnn7ccc(N8C[C@H]9C[C@@H]8CO9)nc67)c(C(F)F)n5)CC4)c3)cc2OC)ccc1=O [Compound I-66]
> 10 | > 10 | CCOC(=O)Cn1cc(NC(=O)c2ccc(-c3ccc(CCCCCCCCCNC[C@H]4CC[C@H](n5cc(NC(=O)c6cnn7ccc(N8C[C@H]9C[C@@H]8CO9)nc67)c(C(F)F)n5)CC4)cc3)cc2OC)ccc1=O [Compound I-67]
> 10 | 1 to 10 | CC(C)(O)c1cc2nn([C@H]3CC[C@H](CNCCCCCCCCCn4ccc5c(C(=O)Nc6ccc(=O)n(CC(=O)O)c6)cccc54)CC3)cc2cc1NC(=O)c1cccc(C(F)(F)F)n1 [Compound I-68]
0.1 to 1 | 0.1 to 1 | CCOC(=O)Cn1cc(NC(=O)c2cccc3c2ccn3CCCCCCCCCNC[C@H]2CC[C@H](n3cc4cc(NC(=O)c5cccc(C(F)(F)F)n5)c(C(C)(C)O)cc4n3)CC2)ccc1=O [Compound I-69]
> 10 | > 10 | O=C(O)Cn1cc(NC(=O)c2cccc3c2ccn3CCCCCCCCCNC[C@H]2CC[C@H](n3cc(NC(=O)c4cnn5ccc(N6C[C@H]7C[C@@H]6CO7)nc45)c(C(F)F)n3)CC2)ccc1=O [Compound I-70]
> 10 | > 10 | CCOC(=O)Cn1cc(NC(=O)c2cccc3c2ccn3CCCCCCNC[C@H]2CC[C@H](n3cc4cc(NC(=O)c5cccc(C(F)(F)F)n5)c(C(C)(C)O)cc4n3)CC2)ccc1=O [Compound I-71]
1 to 10 | 1 to 10 | CCOC(=O)Cn1cc(NC(=O)c2cc(CCCCCCCCCNC[C@H]3CC[C@H](n4cc5cc(NC(=O)c6cccc(C(F)(F)F)n6)c(C(C)(C)O)cc5n4)CC3)cc(-c3cccnc3)c2)ccc1=O [Compound I-72]
> 10 | > 10 | CCOC(=O)Cn1cc(NC(=O)c2cccc3c2ccn3CCCCCCCCCNC[C@H]2CC[C@H](n3cc(NC(=O)c4cnn5ccc(N6C[C@H]7C[C@@H]6CO7)nc45)c(C(F)F)n3)CC2)ccc1=O [Compound I-73]
> 10 | > 10 | O=C(O)Cn1cc(NC(=O)c2cc(CCCCCCCCCNC[C@H]3CC[C@H](n4cc(NC(=O)c5cnn6ccc(N7C[C@H]8C[C@@H]7CO8)nc56)c(C(F)F)n4)CC3)cc(-c3cccnc3)c2)ccc1=O [Compound I-74]
1 to 10 | > 10 | CCOC(=O)Cn1cc(NC(=O)c2cc(CCCCCCCCCNC[C@H]3CC[C@H](n4cc(NC(=O)c5cnn6ccc(N7C[C@H]8C[C@@H]7CO8)nc56)c(C(F)F)n4)CC3)cc(-c3cccnc3)c2)ccc1=O [Compound I-75]
> 10 | > 10 | O=C(O)Cn1cc(NC(=O)c2cc(CCCNC[C@H]3CC[C@H](n4cc(NC(=O)c5cnn6ccc(N7C[C@H]8C[C@@H]7CO8)nc56)c(C(F)F)n4)CC3)cc(-c3cccnc3)c2)ccc1=O [Compound I-76]
> 10 | > 10 | O=C(O)Cn1cc(NC(=O)c2cccc3c2ccn3CCCNC[C@H]2CC[C@H](n3cc(NC(=O)c4cnn5ccc(N6C[C@H]7C[C@@H]6CO7)nc45)c(C(F)F)n3)CC2)ccc1=O [Compound I-77]
> 10 | > 10 | CC(C)(O)c1cc2nn([C@H]3CC[C@H](CNCCCn4ccc5c(C(=O)Nc6ccc(=O)n(CC(=O)O)c6)cccc54)CC3)cc2cc1NC(=O)c1cccc(C(F)(F)F)n1 [Compound I-78]
> 10 | > 10 | CCOC(=O)Cn1cc(NC(=O)c2cccc3c2ccn3CCCNC[C@H]2CC[C@H](n3cc4cc(NC(=O)c5cccc(C(F)(F)F)n5)c(C(C)(C)O)cc4n3)CC2)ccc1=O [Compound I-79]
> 10 | > 10 | CC(C)(O)c1cc2nn([C@H]3CC[C@H](CNCCCc4cc(C(=O)Nc5ccc(=O)n(CC(=O)O)c5)cc(-c5cccnc5)c4)CC3)cc2cc1NC(=O)c1cccc(C(F)(F)F)n1 [Compound I-80]
> 10 | > 10 | CCOC(=O)Cn1cc(NC(=O)c2cccc3c2ccn3CCCNC[C@H]2CC[C@H](n3cc(NC(=O)c4cnn5ccc(N6C[C@H]7C[C@@H]6CO7)nc45)c(C(F)F)n3)CC2)ccc1=O [Compound I-81]

DC50 [1] [µM] | DC50 [2] [µM] | SMILES
> 10 | > 10 | CCOC(=O)Cn1cc(NC(=O)c2cc(CCCNC[C@H]3CC[C@H](n4cc5cc(NC(=O)c6cccc(C(F)(F)F)n6)c(C(C)(C)O)cc5n4)CC3)cc(-c3cccnc3)c2)ccc1=O [Compound I-82]
> 10 | > 10 | CCOC(=O)Cn1cc(NC(=O)c2cc(CCCNC[C@H]3CC[C@H](n4cc(NC(=O)c5cnn6ccc(N7C[C@H]8C[C@@H]7CO8)nc56)c(C(F)F)n4)CC3)cc(-c3cccnc3)c2)ccc1=O [Compound I-83]
> 10 | 1 to 10 | CC(C)(O)c1cc2nn([C@H]3CC[C@H](CNCCCCCCCCCc4cncc(-c5cccc(C(=O)Nc6ccc(=O)n(CC(=O)O)c6)c5)c4)CC3)cc2cc1NC(=O)c1cccc(C(F)(F)F)n1 [Compound I-84]
> 10 | > 10 | O=C(O)Cn1cc(NC(=O)c2cccc(-c3cncc(CCCCCCCCCNC[C@H]4CC[C@H](n5cc(NC(=O)c6cnn7ccc(N8C[C@H]9C[C@@H]8CO9)nc67)c(C(F)F)n5)CC4)c3)c2)ccc1=O [Compound I-85]
> 10 | > 10 | CC(C)(O)c1cc2nn([C@H]3CC[C@H](CNCCCc4cncc(-c5cccc(C(=O)Nc6ccc(=O)n(CC(=O)O)c6)c5)c4)CC3)cc2cc1NC(=O)c1cccc(C(F)(F)F)n1 [Compound I-86]
> 10 | > 10 | O=C(O)Cn1cc(NC(=O)c2cccc(-c3cncc(CCCNC[C@H]4CC[C@H](n5cc(NC(=O)c6cnn7ccc(N8C[C@H]9C[C@@H]8CO9)nc67)c(C(F)F)n5)CC4)c3)c2)ccc1=O [Compound I-87]
1 to 10 | 0.1 to 1 | CCOC(=O)Cn1cc(NC(=O)c2cccc(-c3cncc(CCCCCCCCCNC[C@H]4CC[C@H](n5cc6cc(NC(=O)c7cccc(C(F)(F)F)n7)c(C(C)(C)O)cc6n5)CC4)c3)c2)ccc1=O [Compound I-88, Ethyl 2-[5-[[3-[5-[9-[4-[6-(1-hydroxy-1-methyl-ethyl)—5-[[6-(trifluoromethyl)pyridine-2-carbonyl]amino]indazol-2-yl]cyclohexyl]methylamino]nonyl]-3-pyridyl]benzoyl]amino]-2-oxo-1-pyridyl acetate]
1 to 10 | 1 to 10 | CCOC(=O)Cn1cc(NC(=O)c2cccc(-c3cncc(CCCCCCCCCNC[C@H]4CC[C@H](n5cc(NC(=O)c6cnn7ccc(N8C[C@H]9C[C@@H]8CO9)nc67)c(C(F)F)n5)CC4)c3)c2)ccc1=O [Compound I-89]
> 10 | > 10 | CCOC(=O)Cn1cc(NC(=O)c2cccc(-c3cncc(CCCNC[C@H]4CC[C@H](n5cc6cc(NC(=O)c7cccc(C(F)(F)F)n7)c(C(C)(C)O)cc6n5)CC4)c3)c2)ccc1=O [Compound I-90]
> 10 | > 10 | CCOC(=O)Cn1cc(NC(=O)c2cccc(-c3cncc(CCCNC[C@H]4CC[C@H](n5cc(NC(=O)c6cnn7ccc(N8C[C@H]9C[C@@H]8CO9)nc67)c(C(F)F)n5)CC4)c3)c2)ccc1=O [Compound I-91]
> 10 | > 10 | O=C(O)Cn1cc(NC(=O)c2cccc(-c3cncc(CCCCCCNC[C@H]4CC[C@H](n5cc(NC(=O)c6cnn7ccc(N8C[C@H]9C[C@@H]8CO9)nc67)c(C(F)F)n5)CC4)c3)c2)ccc1=O [Compound I-92]
> 10 | > 10 | O=C(O)Cn1cc(NC(=O)c2cc(CCCCCCNC[C@H]3CC[C@H](n4cc(NC(=O)c5cnn6ccc(N7C[C@H]8C[C@@H]7CO8)nc56)c(C(F)F)n4)CC3)cc(-c3cccnc3)c2)ccc1=O [Compound I-93]
1 to 10 | > 10 | CC(C)(O)c1cc2nn([C@H]3CC[C@H](CNCCCCCCc4cncc(-c5cccc(C(=O)Nc6ccc(=O)n(CC(=O)O)c6)c5)c4)CC3)cc2cc1NC(=O)c1cccc(C(F)(F)F)n1 [Compound I-94]
> 10 | > 10 | CCOC(=O)Cn1cc(NC(=O)c2cc(CCCCCCNC[C@H]3CC[C@H](n4cc5cc(NC(=O)c6cccc(C(F)(F)F)n6)c(C(C)(C)O)cc5n4)CC3)cc(-c3cccnc3)c2)ccc1=O [Compound I-95]
> 10 | > 10 | CC(C)(O)c1cc2nn([C@H]3CC[C@H](CNCCCCCCc4cc(C(=O)Nc5ccc(=O)n(CC(=O)O)c5)cc(-c5cccnc5)c4)CC3)cc2cc1NC(=O)c1cccc(C(F)(F)F)n1 [Compound I-96]
1 to 10 | > 10 | CCOC(=O)Cn1cc(NC(=O)c2cccc(-c3cncc(CCCCCCNC[C@H]4CC[C@H](n5cc6cc(NC(=O)c7cccc(C(F)(F)F)n7)c(C(C)(C)O)cc6n5)CC4)c3)c2)ccc1=O [Compound I-97]
